# Results published in patent US8058309B2, “Protein kinase modulators and therapeutic uses thereof” (Novotyr Therapeutics Ltd., priority 2006, dated 2011).
# Where two headings read alike, the source gives them in different places.
# What was measured:
# MDA MB 468 = assay: Proliferation assay MDA MB 468; format: cell-based; settings: Homo sapiens, Breast, 72 hours
# Description: (§1) Various cancer cell lines (listed in table 1) were plated at a density of 1000-5000 cells/well in 96-well plates in 90111 growth medium containing 10% FCS, 100 units/ml penicillin and 100 μg/ml streptomycin. Inhibitors were added a day later in 10 μl of 1% DMSO in DDW to obtain final concentrations of 0, 0.1, 0.3, 1, 3, and 10 μM. The final concentration of DMSO (0.1% DMSO) was kept constant in all samples. Medium with inhibitors was refreshed a day and two days later. Following exposure of the cells to the inhibitors for 72 hours at 37° C., the cells were fixed in 0.5% gluteraldehyde in medium for 10 min, washed three times with DDW, once with 0.1M sodium borate buffer pH 8.5 and stained with 1% methylene blue dissolved in 0.1M borate buffer solution for 60 min. Excess dye was washed out and cell-bound dye was eluted with 200 μl/well of 0.1 M HCl. The optical density value was read at 620 nm in ELISA plate reader. The data was analyzed in Microsoft Excel, using the vehicle control as 100% proliferation. The assays were performed in triplicates. The values in table 1 represent IC50 values derived from the dose-dependent growth curves obtained.
# (§2) Compounds 6, 7, 8, and 9 were tested for their inhibitory potential in cell proliferation assay. In this assay cells were exposed to increasing concentrations of the molecules (at 0.1% DMSO in all wells) a day after seeding. Medium and inhibitors were refreshed every day, and following three days of treatment, cells were fixed and stained with methylene-Blue. IC50 values were determined from the curves of the optical density against compound concentration. The assay was performed in triplicates.
# YURIF = assay: Proliferation assay YURIF; format: cell-based; settings: Homo sapiens
# Description: as §1, §2
# MO59J = assay: Proliferation assay MO59J; format: cell-based; settings: Glioma, 72 hours
# Description: as §1, §2
# QG56 = assay: Proliferation assay QG56; format: cell-based; settings: Homo sapiens, QG-56, Lung, 72 hours
# Description: as §1, §2
# PC-10 = assay: Proliferation assay PC-10; format: cell-based; settings: Homo sapiens, PC10, Lung, 72 hours
# Description: as §1, §2
# SKBR-3 = assay: Proliferation assay SKBR-3; format: cell-based; settings: Homo sapiens, SK-BR-3, Breast, 72 hours
# Description: as §1, §2
# OVCAR3 = assay: Proliferation assay OVCAR3; format: cell-based; settings: Homo sapiens, OVCAR-3, Ovarian, 72 hours
# Description: as §1, §2
# HT29 [1] = assay: Clonogenic assay HT29; format: cell-based; settings: Homo sapiens, HT-29, Colon
# Description: Various cancer cells (listed in table 1) were seeded at a very low concentration (19 cells/well in 96-well plates or 63 cells/well in 24-well plates) in growth medium. A day later medium was replaced with growth medium containing various concentrations of inhibitors in a final concentration of 0.1% DMSO. The inhibitor-containing medium was refreshed three times a week. Following approximately two weeks cells were fixed by adding Gluteraldehide (0.5% final concentration) for 10 min, washed three time with DDW, once with borate buffer 0.1M and stained for 1 hour with 1% Methylene Blue in borate buffer 0.1M. Access stain was washed with water, and following drying colonies were counted. Alternatively, stain was extracted by 0.1N HCl for 1 hour and absorbance at 620 nm was measured by ELISA Reader. The assays were performed in triplicates. The values in table 1 represent IC50 values derived from the dose-dependent growth curves obtained.
# AsPC1 = assay: Proliferation assay AsPC1; format: cell-based; settings: Homo sapiens, Pancreatic, 72 hours
# Description: as §1, §2
# U87MG = assay: Proliferation assay U87MG; format: cell-based; settings: Homo sapiens, U-87 MG, Glioma, 72 hours
# Description: as §1, §2
# MDA MB 435 = assay: Proliferation assay MDA MB 435; format: cell-based; settings: Homo sapiens, Breast, 72 hours
# Description: as §1, §2
# BAF3 Bcr-Abl = assay: Proliferation assay BAF3 Bcr-Abl; format: cell-based; settings: Mus musculus, Pro B, 72 hours
# Description: as §1, §2
# U266 = assay: Proliferation assay U266; format: cell-based; settings: Homo sapiens, U-266, Myeloma, 72 hours
# Description: as §1, §2
# PC3-MM2 = assay: Proliferation assay PC3-MM2; format: cell-based; settings: Homo sapiens, PC3MM2, Prostate, 72 hours
# Description: as §1, §2
# A2780 = assay: Proliferation assay A2780; format: cell-based; settings: Homo sapiens, Ovarian, 72 hours
# Description: as §1, §2
# HT29 [2] = assay: Proliferation assay HT29; format: cell-based; settings: Homo sapiens, HT-29, Colon, 72 hours
# Description: as §1, §2
# 1376 = assay: Proliferation assay 1376; format: cell-based; settings: Bladder, 72 hours
# Description: as §1, §2
# B16 = assay: Proliferation assay B16; format: cell-based; settings: Mus musculus, Melanoma, 72 hours
# Description: as §1, §2
# T47D = assay: Proliferation assay T47D; format: cell-based; settings: Homo sapiens, Breast, 72 hours
# Description: as §1, §2
# LNCaP = assay: Proliferation assay LNCaP; format: cell-based; settings: Homo sapiens, Prostate, 72 hours
# Description: as §1, §2
# Colo-205 = assay: Proliferation assay Colo-205; format: cell-based; settings: Homo sapiens, Colon, 72 hours
# Description: as §1, §2
# MO59K = assay: Proliferation assay MO59K; format: cell-based; settings: Glioma, 72 hours
# Description: as §1, §2
# K562 = assay: Proliferation assay K562; format: cell-based; settings: Homo sapiens, Leukemia, 72 hours
# Description: as §1, §2
# PANC1 = assay: Proliferation assay PANC1; format: cell-based; settings: Homo sapiens, PANC-1, Pancreatic, 72 hours
# Description: as §1, §2
# IRS1 = IRS1 Ser-phosphorylation and IRS1 levels in A2780 cells; format: cell-based, human; settings: ovarian cancer A2780 cells
# Description: (§3) In addition, lysates were prepared from cells exposed to inhibitors at various concentrations for 24 hours in the presence or the absence of FCS without stimulation. Lysate preparation and western blot were the same as described above. Apoptosis was detected by immunoblotting with rabbit anti-PARP antibodies.
# [3] = tested on: metastatic melanoma YUMAC cells; assay: Apoptosis (cleaved PARP) in YUMAC cells; format: cell-based, human; settings: 24 hours of exposure, 3 μM
# Description: as §3
# [4] = Melanoma, YURIF, 72 hours, read-out: Proliferation assay IC50
# [5] = Table 4, 72 hours incubation, read-out: Inhibition of human metastatic melanoma cells, YURIF IC50
smiles,measurement,setting,value
N#C/C(=C\c1cc(O)c(O)c(Br)c1)C(=S)NCc1cc(O)c(O)c(Br)c1 [Compound 6],IC50,MDA MB 468,> 10 µM
same,IC50,YURIF; [4],> 10 µM
same,IC50,YURIF; [5],> 10 µM
same,IC50,MO59J,8.3 µM
same,IC50,QG56,> 10 µM
same,IC50,PC-10,> 10 µM
same,IC50,SKBR-3,> 10 µM
same,IC50,OVCAR3,> 10 µM
same,IC50,HT29 [1],9.5 µM
same,IC50,AsPC1,> 10 µM
same,IC50,U87MG,> 10 µM
same,IC50,MDA MB 435,> 10 µM
same,IC50,BAF3 Bcr-Abl,7.7 µM
same,IC50,U266,9.8 µM
same,IC50,PC3-MM2,> 10 µM
same,IC50,A2780,6.8 µM
same,IC50,HT29 [2],> 10 µM
same,IC50,1376,2.5 µM
same,IC50,B16,7.9 µM
same,IC50,T47D,> 10 µM
same,IC50,LNCaP,> 10 µM
same,IC50,Colo-205,> 10 µM
same,IC50,MO59K,6.8 µM
same,IC50,K562,> 10 µM
same,IC50,PANC1,> 10 µM
N#C/C(=C\c1cc(O)c(O)c(Br)c1)C(=S)NCc1cc(O)c(O)c(O)c1 [Compound 7],IC50,MDA MB 468,> 10 µM
same,IC50,YURIF; [4],1.4 µM
same,IC50,YURIF; [5],1.4 µM
same,IC50,MO59J,2.1 µM
same,Cellular IRS1 levels,IRS1,a decrease in cellular IRS1 levels
same,IRS1 Ser-phosphorylation (shift up of IRS1 band),IRS1,induced Ser-phosphorylation
same,IC50,QG56,5.2 µM
same,IC50,PC-10,5.2 µM
same,IC50,SKBR-3,9.9 µM
same,IC50,OVCAR3,2 µM
same,IC50,HT29 [1],2.8 µM
same,IC50,AsPC1,> 10 µM
same,IC50,U87MG,6.9 µM
same,IC50,MDA MB 435,2.7 µM
same,IC50,BAF3 Bcr-Abl,8.2 µM
same,IC50,U266,0.8 µM
same,IC50,PC3-MM2,2.6 µM
same,IC50,A2780,0.6 µM
same,IC50,HT29 [2],6.8 µM
same,IC50,1376,0.9 µM
same,IC50,B16,1.9 µM
same,IC50,T47D,2.1 µM
same,IC50,LNCaP,> 10 µM
same,Cleavage of PARP (apoptosis),[3],detected
same,IC50,Colo-205,5.4 µM
same,IC50,MO59K,0.7 µM
same,IC50,K562,~10 µM
same,IC50,PANC1,> 10 µM
N#C/C(=C\c1cc(O)c(O)c(I)c1)C(=S)NCc1cc(O)c(O)c(O)c1 [Compound 8],IC50,MDA MB 468,5.8 µM
same,IC50,YURIF; [4],1.6 µM
same,IC50,YURIF; [5],1.6 µM
same,IC50,MO59J,1.6 µM
same,Cellular IRS1 levels,IRS1,a decrease in cellular IRS1 levels
same,IRS1 Ser-phosphorylation (shift up of IRS1 band),IRS1,induced Ser-phosphorylation
same,IC50,QG56,4.4 µM
same,IC50,PC-10,5.8 µM
same,IC50,SKBR-3,9 µM
same,IC50,OVCAR3,1.9 µM
same,IC50,HT29 [1],5.6 µM
same,IC50,AsPC1,9.5 µM
same,IC50,U87MG,2.4 µM
same,IC50,MDA MB 435,2.1 µM
same,IC50,BAF3 Bcr-Abl,> 10 µM
same,IC50,U266,0.8 µM
same,IC50,PC3-MM2,2.1 µM
same,IC50,A2780,0.6 µM
same,IC50,HT29 [2],6.1 µM
same,IC50,1376,0.8 µM
same,IC50,B16,1.7 µM
same,IC50,T47D,2.5 µM
same,IC50,LNCaP,7.7 µM
same,Cleavage of PARP (apoptosis),[3],detected
same,IC50,Colo-205,2.5 µM
same,IC50,MO59K,0.9 µM
same,IC50,K562,~10 µM
same,IC50,PANC1,> 10 µM
Oc1cc(CNC(=S)/C=C/c2cc(O)c(O)c(Br)c2)cc(O)c1O [Compound 9],IC50,MDA MB 468,7.2 µM
same,IC50,YURIF; [4],0.7 µM
same,IC50,YURIF; [5],0.65 µM
same,IC50,MO59J,0.9 µM
same,Cellular IRS1 levels,IRS1,a decrease in cellular IRS1 levels
same,IRS1 Ser-phosphorylation (shift up of IRS1 band),IRS1,induced Ser-phosphorylation
same,IC50,QG56,2 µM
same,IC50,PC-10,3.8 µM
same,IC50,SKBR-3,6 µM
same,IC50,OVCAR3,0.9 µM
same,IC50,HT29 [1],1.6 µM
same,IC50,AsPC1,> 10 µM
same,IC50,U87MG,6.6 µM
same,IC50,MDA MB 435,1.5 µM
same,IC50,BAF3 Bcr-Abl,6.1 µM
same,IC50,U266,0.9 µM
same,IC50,PC3-MM2,6.9 µM
same,IC50,A2780,0.4 µM
same,IC50,HT29 [2],1.5 µM
same,IC50,1376,1.4 µM
same,IC50,B16,1.4 µM
same,IC50,T47D,1.6 µM
same,IC50,LNCaP,4.7 µM
same,Cleavage of PARP (apoptosis),[3],detected
same,IC50,Colo-205,1.7 µM
same,IC50,MO59K,1.4 µM
same,IC50,K562,> 10 µM
same,IC50,PANC1,> 10 µM
